9 molecules from ChEMBL document CHEMBL5143542, “Synthesis and biological studies of "Polycerasoidol" and "trans-δ-Tocotrienolic acid" derivatives as PPARα and/or PPARγ agonists” (Bioorg Med Chem, 2022) can be followed below.

SMILES strings stand for the structures. The source made the active and inactive calls. No cut-off for these calls is given here.

Holding throughout (type): cell-based
Data set [1] deals with T1, Peroxisome proliferator-activated receptor alpha (Homo sapiens) (UniProt Q07869).
T1 sequence (whole entry): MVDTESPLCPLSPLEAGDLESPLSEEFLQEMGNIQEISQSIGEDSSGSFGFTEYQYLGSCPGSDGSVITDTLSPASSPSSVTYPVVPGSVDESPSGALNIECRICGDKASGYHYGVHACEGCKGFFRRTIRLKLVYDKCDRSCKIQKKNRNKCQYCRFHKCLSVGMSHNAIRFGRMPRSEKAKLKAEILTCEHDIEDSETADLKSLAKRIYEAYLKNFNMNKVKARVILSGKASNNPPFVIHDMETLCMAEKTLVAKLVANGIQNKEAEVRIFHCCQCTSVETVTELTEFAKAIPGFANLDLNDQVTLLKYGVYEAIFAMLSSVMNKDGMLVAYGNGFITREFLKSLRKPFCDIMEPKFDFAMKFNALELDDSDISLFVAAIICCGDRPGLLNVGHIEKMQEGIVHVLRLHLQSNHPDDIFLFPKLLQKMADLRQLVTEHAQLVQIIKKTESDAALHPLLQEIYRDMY
As to the kind of experiment: Agonist activity at Gal4-fused human PPARalpha expressed in COS7 cells assessed as receptor transactivation at 10 uM measured after 24 hrs by luciferase/beta-galactosidase reporter gene assay relative to WY-14643. Particulars: filed as agonist.

Data set [2] addresses T2, Peroxisome proliferator-activated receptor gamma (Homo sapiens, UniProt P37231).
T2 sequence (P37231 whole entry): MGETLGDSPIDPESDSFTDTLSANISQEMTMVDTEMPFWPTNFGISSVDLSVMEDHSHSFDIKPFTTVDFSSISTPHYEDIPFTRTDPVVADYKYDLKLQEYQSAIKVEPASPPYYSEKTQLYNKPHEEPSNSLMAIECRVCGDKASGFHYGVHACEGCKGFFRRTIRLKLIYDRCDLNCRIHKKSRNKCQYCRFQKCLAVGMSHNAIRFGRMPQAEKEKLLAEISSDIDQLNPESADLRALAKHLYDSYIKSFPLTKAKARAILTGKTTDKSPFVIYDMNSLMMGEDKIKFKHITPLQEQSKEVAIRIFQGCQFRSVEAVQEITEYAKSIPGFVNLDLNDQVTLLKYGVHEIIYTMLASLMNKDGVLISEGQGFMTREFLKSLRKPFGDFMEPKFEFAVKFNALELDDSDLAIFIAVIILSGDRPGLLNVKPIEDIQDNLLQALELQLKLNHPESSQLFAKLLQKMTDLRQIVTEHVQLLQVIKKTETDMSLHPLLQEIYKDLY
The experiment in a line: (§1) Agonist activity at Gal4-fused human PPARgamma expressed in COS7 cells assessed as receptor transactivation at 10 uM measured after 24 hrs by luciferase/beta-galactosidase reporter gene assay relative to rosiglitazone. As to conditions: cos7, 24 h, 10 µM. Background: In a reporter assay the amount or activity of a reporter protein is the signal.

Another data set concerns the target T3, PPARgamma (Homo sapiens, UniProt P37231).
T3 sequence (P37231 whole entry): T2 sequence (P37231 whole entry)
The data set is described as §1. As to conditions: COS7 cells expressing Gal4-fused human PPARgamma, read-out: max activation.

Data set [3] concerns the target T4, Peroxisome proliferator-activated receptor gamma (Homo sapiens) (UniProt P37231).
T4 sequence (whole entry): T2 sequence (P37231 whole entry)
As to the kind of experiment: Partial agonist activity at Gal4-fused human PPARgamma expressed in COS7 cells assessed as receptor transactivation at 10 uM measured after 24 hrs by luciferase/beta-galactosidase reporter gene assay. Particulars: filed as partial agonist.

Regarding `CCCOc1ccc2c(c1)CCC(C)(CC/C=C(\C)CC/C=C(\C)CC/C=C(\C)C(=O)OCC)O2` (stereo unspecified), the result in data set [1] was Active. The result in data set [2] was Active.

As to `C/C(=C\CC[C@]1(C)CCc2cc(O)cc(C)c2O1)CC/C=C(\C)C(=O)O`, in data set [1], the max activation turned out to be 107%. At PPARgamma, the Emax at 24 h, 10 µM was 95%.

As to `C/C(=C\CCC1(C)CCc2cc(OCc3ccccc3)ccc2O1)CCC(=O)Nc1ccccc1` (stereo unspecified), the result in data set [1] was Active. For the same molecule, in data set [2], the result was Active.

As for `CCCOc1ccc2c(c1)CCC(C)(CC/C=C(\C)CC/C=C(\C)C(=O)OCC)O2` (stereo unspecified), the outcome in data set [2] was Active.

Consider `C/C(=C\CCC1(C)CCc2cc(OCc3ccccc3)ccc2O1)CC/C=C(\C)C(=O)Nc1ccccc1` (stereo unspecified), for which the result in data set [3] was Active.

Take `CCOC(=O)CC/C(C)=C/CCC1(C)CCc2cc(OCc3ccccc3)ccc2O1` (stereo unspecified): the max activation in data set [1] was determined as 123%. For the same molecule, the Emax at 24 h, 10 µM on PPARgamma was determined as 38%.

On to `CCCOc1ccc2c(c1)CCC(C)(CC/C=C(\C)CCC(=O)Nc1ccccc1)O2` (stereo unspecified), for which, in data set [1], the outcome was Active. The result in data set [2] was Active.

As for `CCCOc1ccc2c(c1)CCC(C)(CC/C=C(\C)CCC(=O)OCC)O2` (stereo unspecified), the result in data set [1] was Active. For the same molecule, the outcome in data set [2] was Active.

`CCCOc1ccc2c(c1)CCC(C)(CC/C=C(\C)CC/C=C(\C)CC/C=C(\C)C(=O)Nc1ccccc1)O2` (stereo unspecified): in data set [1], the outcome was Active. Further, the result in data set [2] was Active.
